Results on 19 molecules are retold here after patent US12054487B2, “Muscarinic acetylcholine M1 receptor antagonists” (Contineum Therapeutics, Inc., priority 2018, dated 2024).

What is called IC50 is the concentration at which inhibition is half-maximal.

Holding throughout (format): cell-based
Assay [1] deals with M3 (Homo sapiens, UniProt P20309). In words: In vitro functional assay of muscarinic acetylcholine receptor activity, M3. The note with it: antagonist activity; M3 method not separately described. The protocol: [The procedure below names another target; the source lists this target under the same test.] (§1) CHO-K1 cells stably expressing human M1 receptor with Aequorin (Perkin Elmer) were grown in F12 media, 10% FBS with 0.4 mg/mL geneticin and […]. Cells were grown to confluence and frozen down to be assayed at a later date. On the day of the experiment cells were thawed in a 37° C. water bath, resuspended in DMEM/HAM's F12 with HEPES (Invitrogen)+0.1% protease-free BSA (assay buffer), and spun down to remove freezing media. After centrifugation, supernatant was removed and 12 mL of assay buffer was added. Coelenterazine h (Promega) was added to the cells at a final concentration of 5 uM and incubated for 4 hours at room temperature in the dark. Compound master plate-96 deep well (Corning) were formatted in a 8-point DRC in assay buffer with 0.2% DMSO at a starting concentration of 60 uM (2×). After 4 hours of incubation, cells were plated at a concentration of 5×10^5 cells/well in 96 well white-walled, tissue culture-treated, clear-bottom plates (VWR). Compounds were added to the daughter plate, and cells plus compound were incubated at room temperature for 30 minutes in the dark.
Chain of M3 (P20309 whole entry): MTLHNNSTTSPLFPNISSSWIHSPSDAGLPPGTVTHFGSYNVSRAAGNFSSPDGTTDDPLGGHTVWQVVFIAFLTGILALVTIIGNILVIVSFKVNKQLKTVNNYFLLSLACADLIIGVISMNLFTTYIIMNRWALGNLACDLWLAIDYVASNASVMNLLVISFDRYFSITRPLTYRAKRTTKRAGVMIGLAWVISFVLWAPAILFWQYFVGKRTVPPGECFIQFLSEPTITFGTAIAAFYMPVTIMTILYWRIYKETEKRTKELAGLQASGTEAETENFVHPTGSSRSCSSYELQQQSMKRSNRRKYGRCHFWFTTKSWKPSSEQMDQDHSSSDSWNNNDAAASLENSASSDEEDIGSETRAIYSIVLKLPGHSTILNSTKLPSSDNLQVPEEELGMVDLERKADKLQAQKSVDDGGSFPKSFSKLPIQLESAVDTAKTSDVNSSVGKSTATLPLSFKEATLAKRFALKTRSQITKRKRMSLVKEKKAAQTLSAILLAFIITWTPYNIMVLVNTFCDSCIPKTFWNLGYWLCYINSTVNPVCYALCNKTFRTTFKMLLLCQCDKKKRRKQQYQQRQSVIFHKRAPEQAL
(§2) Calcium flux was measured using the FlexStation 3 (Molecular Devices). To measure the antagonist dose-response, the EC80 of Acetylcholine was injected to the daughter plate using the automated compound transfer function of the Flex Station, and the increase in luminescence was measured over time. Antagonist activity was analyzed as a concentration dependent decrease in the EC80 acetylcholine response. Dose response curves were generated using Prism (GraphPad Software). The IC50 of the compounds was calculated from the dose response curve.

The target in assay [2] is T1, human M1 receptor (Homo sapiens, UniProt P11229).
T1 construct: host or cells: CHO-K1
T1 sequence (P11229 1-460): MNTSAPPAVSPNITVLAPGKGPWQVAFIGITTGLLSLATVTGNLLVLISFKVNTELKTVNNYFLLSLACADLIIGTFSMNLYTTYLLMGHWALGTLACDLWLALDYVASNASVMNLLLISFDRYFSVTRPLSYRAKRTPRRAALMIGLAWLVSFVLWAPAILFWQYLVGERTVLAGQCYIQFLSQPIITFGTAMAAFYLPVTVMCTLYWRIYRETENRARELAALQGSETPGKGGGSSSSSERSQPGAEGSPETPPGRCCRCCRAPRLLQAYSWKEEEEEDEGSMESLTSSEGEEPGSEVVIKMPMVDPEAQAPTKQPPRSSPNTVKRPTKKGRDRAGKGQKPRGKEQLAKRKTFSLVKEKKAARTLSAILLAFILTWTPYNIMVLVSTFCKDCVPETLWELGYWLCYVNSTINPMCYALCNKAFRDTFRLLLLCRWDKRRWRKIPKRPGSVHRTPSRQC
The assay can be described thus: In vitro functional assay of muscarinic acetylcholine receptor activity (aequorin calcium flux, antagonist mode vs EC80 acetylcholine), M1. The note with it: CHO-K1 cells stably expressing human M1 receptor with Aequorin; decrease in EC80 acetylcholine response. The protocol:
as §1, §2
(A change in cytosolic calcium serves as a functional read-out for many receptors and channels.)

The target in assay [3] is T2, M2 (Homo sapiens, UniProt P08172).
T2 sequence (P08172 1-466): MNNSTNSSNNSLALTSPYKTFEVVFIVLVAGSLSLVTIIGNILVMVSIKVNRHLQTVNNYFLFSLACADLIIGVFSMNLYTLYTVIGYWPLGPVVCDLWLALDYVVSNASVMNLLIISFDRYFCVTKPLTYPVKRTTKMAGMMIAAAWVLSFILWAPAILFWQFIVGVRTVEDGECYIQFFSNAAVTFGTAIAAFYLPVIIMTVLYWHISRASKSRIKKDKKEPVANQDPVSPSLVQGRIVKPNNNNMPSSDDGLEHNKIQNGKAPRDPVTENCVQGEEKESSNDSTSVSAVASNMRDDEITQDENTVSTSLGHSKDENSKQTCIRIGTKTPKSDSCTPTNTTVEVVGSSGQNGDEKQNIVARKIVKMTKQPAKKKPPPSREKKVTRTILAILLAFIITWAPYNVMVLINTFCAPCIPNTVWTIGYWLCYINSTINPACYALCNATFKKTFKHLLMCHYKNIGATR
In words: In vitro functional assay of muscarinic acetylcholine receptor activity, M2. The note with it: antagonist activity; M2 method not separately described. The protocol:
[The procedure below names another target; the source lists this target under the same test.] as §1, §2

Bounds are passed on as bounds.

Take `CS(=O)(=O)c1ccc(N2CCN3C(=O)[C@@H](CCCc4cccc5ncsc45)C[C@H]3C2)nc1` [Example 13, (7S,8aS)-7-(3-(benzo[d]thiazol-7-yl)propyl)-2-(5-(methylsulfonyl)pyridin-2-yl)hexahydropyrrolo[1,2-a]pyrazin-6(2H)-one]: the 50% inhibitory concentration (IC50) in assay [1] was 100 to 1000 nM; in assay [2] it was less than 100 nM; in assay [3] it was 100 to 1000 nM.

As for `N#Cc1ccc(N2CCN3C(=O)[C@@H](CCCc4cccc5cncn45)C[C@H]3C2)nc1` [Example 14, 6-((7S,8aS)-7-(3-(imidazo[1,5-a]pyridin-5-yl)propyl)-6-oxohexahydropyrrolo[1,2-a]pyrazin-2(1H)-yl)nicotinonitrile], the IC50 in assay [1] lay in the range of 1000 to 10000 nM; in assay [2], 100 to 1000 nM; in assay [3], 1000 to 10000 nM.

Regarding `N#Cc1ccc(N2CCN3C(=O)[C@@H](CCCc4cccn5ccnc45)C[C@H]3C2)nc1` [Example 15], the IC50 was 1000 to 10000 nM in assay [1], 100 to 1000 nM in assay [2] and greater than 10000 nM in assay [3].

`N#Cc1ccc(N2CCN3C(=O)[C@@H](CCCc4cccc5nncn45)C[C@H]3C2)nc1` [Example 16, 6-((7S,8aS)-7-(3-([1,2,4]triazolo[4,3-a]pyridin-5-yl)propyl)-6-oxohexahydropyrrolo[1,2-a]pyrazin-2(1H)-yl)nicotinonitrile]: the IC50 in assay [1], in assay [2] and in assay [3] was 100 to 1000 nM each time.

On to `N#Cc1ccc(N2CCN3C(=O)[C@@H](CCCc4cccc5nnnn45)C[C@H]3C2)nc1` [Example 17, 6-((7S,8aS)-6-oxo-7-(3-(tetrazolo[1,5-a]pyridin-5-yl)propyl)hexahydropyrrolo[1,2-a]pyrazin-2(1H)-yl)nicotinonitrile], for which the IC50 in assay [1] was 1000 to 10000 nM; in assay [2] it was less than 100 nM; in assay [3], 1000 to 10000 nM.

For `N#Cc1ccc(N2CCN3C(=O)[C@@H](CCCc4cccc5c4CCC5)C[C@H]3C2)nc1` [Example 18, 6-((7S,8aS)-7-(3-(2,3-dihydro-1H-inden-4-yl)propyl)-6-oxohexahydropyrrolo[1,2-a]pyrazin-2(1H)-yl)nicotinonitrile], the IC50 is greater than 10000 nM in assay [1], 1000 to 10000 nM in assay [2] and 1000 to 10000 nM in assay [3].

Turning to `N#Cc1ccc(N2CCN3C(=O)[C@@H](CCCc4cccc5c4CCO5)C[C@H]3C2)nc1` [Example 19, 6-((7S,8aS)-7-(3-(2,3-dihydrobenzofuran-4-yl)propyl)-6-oxohexahydropyrrolo[1,2-a]pyrazin-2(1H)-yl)nicotinonitrile], the IC50 in assay [1] is 1000 to 10000 nM; in assay [2], less than 100 nM; in assay [3], 100 to 1000 nM.

On to `N#Cc1ccc(N2CCN3C(=O)[C@@H](CCCc4ccc5c(c4)CCO5)C[C@H]3C2)nc1` [Example 20, 6-((7S,8aS)-7-(3-(2,3-dihydrobenzofuran-5-yl)propyl)-6-oxohexahydropyrrolo[1,2-a]pyrazin-2(1H)-yl)nicotinonitrile], for which the values for the IC50 in assay [1], in assay [2] and in assay [3] were 1000 to 10000 nM, 100 to 1000 nM and 1000 to 10000 nM, respectively.

Regarding `Cc1nc2cccc(CCC[C@H]3C[C@H]4CN(c5ccc(C#N)cn5)CCN4C3=O)c2o1` [Example 21, 6-((7S,8aS)-7-(3-(2-methylbenzo[d]oxazol-7-yl)propyl)-6-oxohexahydropyrrolo[1,2-a]pyrazin-2(1H)-yl)nicotinonitrile], the results for the IC50 in assay [1], in assay [2] and in assay [3] were 1000 to 10000 nM, less than 100 nM and 1000 to 10000 nM, respectively.

For `N#Cc1ccc(N2CCN3C(=O)[C@@H](CCCc4cccc5ncoc45)C[C@H]3C2)nc1` [Example 22, 6-((7S,8aS)-7-(3-(benzo[d]oxazol-7-yl)propyl)-6-oxohexahydropyrrolo[1,2-a]pyrazin-2(1H)-yl)nicotinonitrile], the half-inhibitory concentration (IC50) was 1000 to 10000 nM in assay [1], less than 100 nM in assay [2] and 100 to 1000 nM in assay [3].

In the case of `N#Cc1ccc(N2CCN3C(=O)[C@@H](CCCc4cccc(F)c4C4CC4)C[C@H]3C2)nc1` [Example 25, 6-((7S,8aS)-7-(3-(2-cyclopropyl-3-fluorophenyl)propyl)-6-oxohexahydropyrrolo[1,2-a]pyrazin-2(1H)-yl)nicotinonitrile], the values for the 50% inhibitory concentration (IC50) in assay [1], in assay [2] and in assay [3] were 100 to 1000 nM, less than 100 nM and 1000 to 10000 nM, respectively.

In the case of `O=C1[C@@H](CCCc2cccc3ncsc23)C[C@H]2CN(c3cccnc3)CCN12` [Example 26, (7S,8aS)-7-(3-(benzo[d]thiazol-7-yl)propyl)-2-(pyridin-3-yl)hexahydropyrrolo[1,2-a]pyrazin-6(2H)-one], the IC50 is 1000 to 10000 nM in assay [1], 100 to 1000 nM in assay [2] and greater than 10000 nM in assay [3].

With `O=C1[C@@H](CCCc2cccc3ncsc23)C[C@H]2CN(c3ccccn3)CCN12` [Example 27, (7S,8aS)-7-(3-(benzo[d]thiazol-7-yl)propyl)-2-(pyridin-2-yl)hexahydropyrrolo[1,2-a]pyrazin-6(2H)-one], the IC50 in assay [1] is 1000 to 10000 nM; in assay [2], 100 to 1000 nM; in assay [3] it was greater than 10000 nM.

With `O=C1[C@@H](CCCc2cccc3ncsc23)C[C@H]2CN(c3ccncc3)CCN12` [Example 28, (7S,8aS)-7-(3-(benzo[d]thiazol-7-yl)propyl)-2-(pyridin-4-yl)hexahydropyrrolo[1,2-a]pyrazin-6(2H)-one], the IC50 was 100 to 1000 nM in assay [1], less than 100 nM in assay [2] and 100 to 1000 nM in assay [3].

With `Nc1cc(N2CCN3C(=O)[C@@H](CCCc4cccc5ncsc45)C[C@H]3C2)ccn1` [Example 30, (7S,8aS)-2-(2-aminopyridin-4-yl)-7-(3-(benzo[d]thiazol-7-yl)propyl)hexahydropyrrolo[1,2-a]pyrazin-6(2H)-one], the figures for the half-inhibitory concentration (IC50) in assay [1], in assay [2] and in assay [3] were 1000 to 10000 nM, less than 100 nM and 1000 to 10000 nM, respectively.

In the case of `O=C1[C@@H](CCCc2cccc3ncnn23)C[C@H]2CN(c3cccc(C(F)(F)F)n3)CCN12` [Example 31, (7S,8aS)-7-(3-([1,2,4]triazolo[1,5-a]pyridin-5-yl)propyl)-2-(6-(trifluoromethyl)pyridin-2-yl)hexahydropyrrolo[1,2-a]pyrazin-6(2H)-one], the IC50 in assay [1] was greater than 10000 nM; in assay [2] it was 1000 to 10000 nM; in assay [3], greater than 10000 nM.

With `O=C1[C@@H](CCCc2cccc3ncnn23)C[C@H]2CN(c3ccc(C(F)(F)F)cn3)CCN12` [Example 32, (7S,8aS)-7-(3-([1,2,4]triazolo[1,5-a]pyridin-5-yl)propyl)-2-(5-(trifluoromethyl)pyridin-2-yl)hexahydropyrrolo[1,2-a]pyrazin-6(2H)-one], the results for the IC50 in assay [1], in assay [2] and in assay [3] were 1000 to 10000 nM, less than 100 nM and 100 to 1000 nM, respectively.

Take `O=C1[C@@H](CCCc2cccc3ncnn23)C[C@H]2CN(c3ccnc(C(F)(F)F)c3)CCN12` [Example 33, (7S,8aS)-7-(3-([1,2,4]triazolo[1,5-a]pyridin-5-yl)propyl)-2-(2-(trifluoromethyl)pyridin-4-yl)hexahydropyrrolo[1,2-a]pyrazin-6(2H)-one]: the 50% inhibitory concentration (IC50) in assay [1] fell in the range of 1000 to 10000 nM; in assay [2], 100 to 1000 nM; in assay [3], 1000 to 10000 nM.

With `O=C1[C@@H](CCCc2cccc3ncnn23)C[C@H]2CN(c3ccc(Cl)cn3)CCN12` [Example 34, (7S,8aS)-7-(3-([1,2,4]triazolo[1,5-a]pyridin-5-yl)propyl)-2-(5-chloropyridin-2-yl)hexahydropyrrolo[1,2-a]pyrazin-6(2H)-one], the IC50 was 1000 to 10000 nM in assay [1], less than 100 nM in assay [2] and 1000 to 10000 nM in assay [3].
